The subject of data set [1] is Ebola trVLP replication. The data set can be described thus: microbe, parasite or virus in culture. It is filed as cell-based, Ebola virus (EBOV).
In data set [2] the test system is EBOV GP. It is filed as cell-based, Ebola virus (EBOV).
Data set [3] relates to VP40. The format is cell-based, Ebola virus (EBOV).
For data set [4], the system named is HEK293T cells. The following applies: human.
Data set [5] relates to tetracistronic minigenome RNA incorporated into trVLPs. The format is cell-based, Ebola virus (EBOV).
A short description of data set [6]: in vitro. The conditions noted are these: human.
Data set [7] in a line: in vitro. The conditions noted are these: human. This is another data set of the same source.
In data set [8] the test system is dengue virus. It is filed as cell-based.
Data set [9] deals with rhinovirus. It is filed as cell-based.

Molecules are shown by their SMILES. Where a name gives a salt, the structure may show the parent alone. Read-outs that look alike come from different tables or passages of the source.

The EC50 is the concentration giving half of the maximal effect. As for `NC(=O)c1ncn([C@@H]2O[C@H](CO)[C@@H](O)[C@H]2O)n1` [RBV, ribavirin], in [1], the response was half-maximal at 4.1 ± 2.1 µM (EC50) and the “SI (selectivity index, ratio of CC50 to EC50)” value was > 16.3. Besides, in [2], the “reduction of the number of GP-positive spots” value (shortened to “reduction”) was 62.5%. Also, in data set [3], the “VP40 protein level (Western blot)” value is “downregulated in a dose-dependent manner”. In data set [4], the CC50 was > 90 µM.
On to `CC(C)(N)C(=O)N[C@H](COCc1ccccc1)C(=O)N1CCC2(CC1)CN(S(C)(=O)=O)c1ccccc12` [Ibutamoren mesylate, ibutamoren mesylate], for which, in data set [1], the EC50 was < 0.4 µM; the “S.I. (selectivity index)” value was 222.8; the “SI (selectivity index, ratio of CC50 to EC50)” value was > 81.1. The molecule further yielded an EC50 in [1] (Zaire ebolavirus, HEK-293T) of 0.2 µM. The “reduction” value in data set [2] was found to be 74.2%. The “VP40 protein level (Western blot)” value in data set [3] is on record as “downregulated in a dose-dependent manner”. Further, in data set [5], the “amount of negative-sense minigenome RNA incorporated into trVLPs” value (“amount” for short) was “suppression of the amount of negative-sense minigenome RNA incorporated into trVLPs in a dose-dependent manner”. In addition, the CC50 in data set [4] was > 30 µM. In addition, the CC50 in [6] stood at 76.7 µM.
`NC(=O)c1nc(F)c[nH]c1=O` [Hit T-705, 6-flouro-3-hydroxy-2-pyrazinecarboxamide]: the “SI (selectivity index, ratio of CC50 to EC50)” value in data set [1] was > 13.0. This molecule also registered an EC50 in data set [1] (Zaire ebolavirus, HEK-293T) of 4.7 ± 3.1 µM. Also, the CC50 in data set [7] was > 90 µM.
With `O=C(c1ccc(OCCN2CCCCC2)cc1)c1c(-c2ccc(O)cc2)sc2cc(O)ccc12` [Raloxifene, raloxifene hydrochloride], in data set [1], the “SI (selectivity index, ratio of CC50 to EC50)” value is reported as 47.1 ± 2.2. Further, the “reduction” value in data set [2] is listed as 69.1%. Further, in data set [3], the “VP40 protein level (Western blot)” value is “downregulated in a dose-dependent manner”. Besides, the “amount” value in data set [5] is recorded as “suppression of the amount of negative-sense minigenome RNA incorporated into trVLPs in a dose-dependent manner”. In addition, the “viral inhibition in cells” value in [8] and in data set [9] was “no viral inhibition” each time. For the same molecule, the CC50 came out at 25.6 ± 0.2 µM in data set [4], 13.9 µM in data set [7] and 23.4 µM in data set [6].
On to `CNCCCC12CCC(c3ccccc31)c1ccccc12` [Maprotiline], for which the CC50 in data set [7] is 25.1 ± 2.1 µM.
As for `OCCN1CCN(CCCN2c3ccccc3Sc3ccc(Cl)cc32)CC1` [Perphenazine], the “SI (selectivity index, ratio of CC50 to EC50)” value in data set [1] turned out to be 27.7 ± 9.2. The EC50 in data set [1] (Zaire ebolavirus, HEK-293T) was 0.7 ± 0.2 µM. This molecule had a CC50 in [7] of 17.4 ± 0.6 µM.
Regarding `O=C1NCCN1CCN1CCC(c2cn(-c3ccc(F)cc3)c3ccc(Cl)cc23)CC1` [Sertindole], the “SI (selectivity index, ratio of CC50 to EC50)” value in [1] is given as > 45.8. For the same molecule, in [2], the “reduction” value came to 84.7%. Further, in [3], the “VP40 protein level (Western blot)” value is listed as “downregulated in a dose-dependent manner”. Moreover, in data set [5], the “amount” value was “suppression of the amount of negative-sense minigenome RNA incorporated into trVLPs in a dose-dependent manner”. Moreover, the “viral inhibition in cells” value in [8] and in data set [9] was “no viral inhibition” in each case. In addition, the values for the CC50 in [4], in data set [7] and in data set [6] were > 30 µM, 23.1 µM and 13.7 µM, respectively.
With `CN1CCN(C(c2ccccc2)c2ccc(Cl)cc2)CC1` (centres unmarked) [Chlorcyclizine], in data set [1], the “SI (selectivity index, ratio of CC50 to EC50)” value is reported as > 17.0. Further, the EC50 in data set [1] (Zaire ebolavirus, HEK-293T) was found to be 2.7 ± 2.2 µM. Also, the CC50 in data set [7] was > 30 µM.
The corresponding values for `CCCC(C(=O)OCCN(CC)CC)(c1ccccc1)c1ccccc1` [Proadifen] are > 11.6, 2.7 ± 0.7 µM and > 30 µM.
`CN(C)C(=O)C(CCN1CCC(O)(c2ccc(Cl)cc2)CC1)(c1ccccc1)c1ccccc1` [Loperamide]: the CC50 in data set [7] was > 30 µM.
With `CN1CCCN(C(c2ccccc2)c2ccc(Cl)cc2)CC1` (centres unmarked) [Homochlorcyclizine], the “SI (selectivity index, ratio of CC50 to EC50)” value in [1] is > 37.1. For the same molecule, the EC50 in data set [1] (Zaire ebolavirus, HEK-293T) turned out to be 0.8 µM. For the same molecule, the CC50 in data set [7] was > 30 µM.
`Cc1[nH]c(/C=C2\C(=O)Nc3ccc(S(=O)(=O)N(C)c4cccc(Cl)c4)cc32)c(C)c1C(=O)N1CCN(C)CC1` [SU11274]: the “SI (selectivity index, ratio of CC50 to EC50)” value in [1] is given as > 13.6. The EC50 in data set [1] (Zaire ebolavirus, HEK-293T) amounted to 2.6 ± 1.4 µM. In data set [7], the CC50 is > 30 µM.
On the same counts, the results for `CC(=O)c1ccc2c(c1)N(CCCN1CCC(CCO)CC1)c1ccccc1S2` [Piperacetazine] are 15.7 ± 4.6, 2 ± 0.6 µM and 26.1 ± 5.5 µM.
For the molecule `CN(C)CCCN1c2ccccc2Sc2ccc(C(F)(F)F)cc21` [Triflupromazine], the “SI (selectivity index, ratio of CC50 to EC50)” value in data set [1] was > 23.8. The molecule further yielded an EC50 in data set [1] (Zaire ebolavirus, HEK-293T) of 1.4 ± 0.5 µM. Further, in data set [7], the CC50 was > 30 µM.
For the molecule `CN1[C@@H]2CC[C@H]1C[C@@H](OC(c1ccccc1)c1ccccc1)C2` [Benztropine mesylate], the CC50 in data set [7] is > 30 µM.
Regarding `CN1[C@@H]2CC[C@H]1C[C@@H](OC(c1ccccc1)c1ccc(Cl)cc1)C2` (some centres unmarked) [Hit 3-CPMT, 3a-[(4-chlorophenyl)phenylmethoxy]tropane], the “SI (selectivity index, ratio of CC50 to EC50)” value in data set [1] was > 26.3. This molecule also had an EC50 in data set [1] (Zaire ebolavirus, HEK-293T) of 1.3 ± 0.5 µM. Moreover, the CC50 in data set [7] is > 30 µM.
